Experimental data: patent publication US20250129062A1, “AMORPHOUS SUBSTANCES, CRYSTALS, PHARMACEUTICAL COMPOSITIONS, PREPARATION METHODS AND USES OF THIOHYDANTOIN COMPOUND OR PHARMACEUTICALLY ACCEPTABLE SALT THEREOF” (SUZHOU KINTOR PHARMACEUTICALS, INC., priority 2021, published 2025)
In brackets after ≈: the same amount, converted by molar mass. Read-outs that look alike come from different tables or passages of the source.

What was measured:
Format in all cases: physicochemical
[1] = Accelerated stability experiment of amorphous substance; conditions: Acceleration
Experimental: Referring to ICH Q1A stability testing of new drug substances and products, the amorphous substance of the compound of formula I prepared in example 1 was subjected to a long-term stability experiment (experimental condition: 25±2° C., RH 60%=5%) and an accelerated stability experiment (experimental condition: 40±2° C., RH 75%=5%). The purity of the sample at different times was detected by HPLC under condition 2 to evaluate the physicochemical stability of the amorphous substance of the compound of formula I. The results were as shown in Table 18.
Condition 2: • Instruments: Agilent 1260; • Chromatographic column: C18 (150 mm×4.6 mm×3.5 μm); • column temperature: 45° C.; • Mobile phase: binary mobile phase system, mobile phase A was a 10 mM aqueous ammonium acetate solution (preparation method: ammonium acetate was added into purified water, and mixed evenly, and pH value was adjusted to 4.50±0.05 with acetic acid), mobile phase B was acetonitrile; • Elution mode: gradient elution, with specific procedures as shown in Table 17; • flow rate: 1.0 mL/min; • Injection volume: 5 μL; • Detection wavelength: 270 nm; • Data acquisition: OpenLab CDS2 software.

[2] = High temperature stability experiment of amorphous substance (60° C.); conditions: 60° C. in the dark
Experimental: The amorphous substance of the compound of formula I prepared in example 1 was stored at 60° C. in the dark for 30 days, and the purity percentages were detected by HPLC on day 0, day 5, day 10 and day 30, respectively.

[3] = Solubility of amorphous substance in solvent systems (supersaturated solution, oscillated 24 h at room temperature, HPLC); conditions: for solubility at 24 h: thermodynamic from solid
Experimental: The amorphous substance of the compound of formula I was prepared into supersaturated solutions with different solvents, and oscillated under a room temperature condition (a constant temperature). After oscillating for 24 h, sampling was performed, and the content of the sample was detected by HPLC under condition 1.
Condition 1: • Chromatographic column: C18 (150 mm×4.6 mm×3.5 μm); • Mobile phase: binary mobile phase system, mobile phase A was 0.1% formic acid in water, mobile phase B was acetonitrile; • Elution time: 68 min; • Elution mode: gradient elution (in the gradient elution process, mobile phase A had the maximum volume percentage of 95% and the minimum volume percentage of 10%); • Detection wavelength: 270 nm.

With `Cc1ncsc1-c1ccc(CNC(=O)[C@@H]2C[C@@H](O)CN2C(=O)[C@@H](NC(=O)COCCCCOc2ccc(-c3ccc(N4C(=S)N(c5ccc(C#N)c(C(F)(F)F)c5F)C(=O)C4(C)C)cn3)cc2)C(C)(C)C)cc1` the “purity (HPLC)” value ([1]; 1 months) was 99.41%, the “purity (HPLC)” value ([1]; 3 months) was 99.35% and the “purity (HPLC)” value ([1]; 6 months) was 99.36%. The “purity (HPLC)” value ([1]; 40±2° C., RH 75%=5%, 0 month) was 99.25%, the Purity % ([2]; 0 day) was 99.35% and the Purity % ([2]; 5 days) was 99.34%. For the same compound, the Purity % ([2]; 10 days) was 99.27%, the Purity % ([2]; 30 days) was 99.34% and the Solubility ([3]; Dehydrated alcohol 35%-propylene glycol 45%-water 20% (w/w)) was >154310 µg/mL. The Solubility ([3]; Dehydrated alcohol 40%-propylene glycol 50%-water 10% (w/w)) was >64560 µg/mL, the solubility at 24 h ([3]; dehydrated alcohol 10%-propylene glycol 20%-water 70% (w/w), aqueous with cosolvent or surfactant or cyclodextrin, Dehydrated alcohol 10%-propylene glycol 20%-water 70% (w/w), read-out: Solubility) was 30 µg/mL (≈ 28.8 µM) and the solubility at 24 h ([3]; dehydrated alcohol 10%-propylene glycol 30%-water 60% (w/w), aqueous with cosolvent or surfactant or cyclodextrin, Dehydrated alcohol 10%-propylene glycol 30%-water 60% (w/w), read-out: Solubility) was 450 µg/mL (≈ 431 µM). It also gave a solubility at 24 h ([3]; dehydrated alcohol 10%: water 90% (w/w), aqueous with cosolvent or surfactant or cyclodextrin, Dehydrated alcohol 10%: water 90% (w/w), read-out: 24 h solubility) of 140 µg/mL (≈ 134 µM), a solubility at 24 h ([3]; dehydrated alcohol 20%-propylene glycol 20%-water 60% (w/w), aqueous with cosolvent or surfactant or cyclodextrin, Dehydrated alcohol 20%-propylene glycol 20%-water 60% (w/w), read-out: Solubility) of 80 µg/mL (≈ 76.7 µM) and a solubility at 24 h ([3]; dehydrated alcohol 20%-propylene glycol 30%-water 50% (w/w), aqueous with cosolvent or surfactant or cyclodextrin, Dehydrated alcohol 20%-propylene glycol 30%-water 50% (w/w), read-out: Solubility) of 440 µg/mL (≈ 422 µM). It also gave a solubility at 24 h ([3]; dehydrated alcohol 20%-propylene glycol 40%-water 40% (w/w), aqueous with cosolvent or surfactant or cyclodextrin, Dehydrated alcohol 20%-propylene glycol 40%-water 40% (w/w), read-out: Solubility) of 3790 µg/mL (≈ 3630 µM), a solubility at 24 h ([3]; dehydrated alcohol 20%-propylene glycol 50%-water 30% (w/w), aqueous with cosolvent or surfactant or cyclodextrin, Dehydrated alcohol 20%-propylene glycol 50%-water 30% (w/w), read-out: Solubility) of 12600 µg/mL (≈ 12100 µM) and a solubility at 24 h ([3]; dehydrated alcohol 20%: water 80% (w/w), aqueous with cosolvent or surfactant or cyclodextrin, Dehydrated alcohol 20%: water 80% (w/w), read-out: 24 h solubility) of 140 µg/mL (≈ 134 µM). The solubility at 24 h ([3]; dehydrated alcohol 30%: water 70% (w/w), aqueous with cosolvent or surfactant or cyclodextrin, Dehydrated alcohol 30%: water 70% (w/w), read-out: 24 h solubility) was 110 µg/mL (≈ 105 µM), the solubility at 24 h ([3]; dehydrated alcohol 35%-propylene glycol 45%-water 20% (w/w), aqueous with cosolvent or surfactant or cyclodextrin, Dehydrated alcohol 35%-propylene glycol 45%-water 20% (w/w), read-out: Solubility) was > 154000 µg/mL and the solubility at 24 h ([3]; dehydrated alcohol 40%-propylene glycol 50%-water 10% (w/w), aqueous with cosolvent or surfactant or cyclodextrin, Dehydrated alcohol 40%-propylene glycol 50%-water 10% (w/w), read-out: Solubility) was > 64600 µg/mL. The solubility at 24 h ([3]; dehydrated alcohol 40%: water 60% (w/w), aqueous with cosolvent or surfactant or cyclodextrin, Dehydrated alcohol 40%: water 60% (w/w), read-out: 24 h solubility) was 510 µg/mL (≈ 489 µM), the solubility at 24 h ([3]; dehydrated alcohol 60%: water 40% (w/w), organic solvent or mixture, Dehydrated alcohol 60%: water 40% (w/w), read-out: 24 h solubility) was 26000 µg/mL (≈ 24900 µM) and the solubility at 24 h ([3]; dehydrated alcohol 70%: water 30% (w/w), organic solvent or mixture, Dehydrated alcohol 70%: water 30% (w/w), read-out: 24 h solubility) was > 34900 µg/mL. The solubility at 24 h ([3]; dehydrated alcohol 80%: water 20% (w/w), organic solvent or mixture, Dehydrated alcohol 80%: water 20% (w/w), read-out: 24 h solubility) was > 42100 µg/mL, the solubility at 24 h ([3]; dehydrated alcohol 90%: water 10% (w/w), organic solvent or mixture, Dehydrated alcohol 90%: water 10% (w/w), read-out: 24 h solubility) was > 77700 µg/mL and the solubility at 24 h ([3]; dehydrated alcohol, organic solvent or mixture, solvent: Dehydrated alcohol, read-out: 24 h solubility) was > 54000 µg/mL. For the same compound, the solubility at 24 h ([3]; dehydrated alcohol-PEG400-water solvent mixture, aqueous with cosolvent or surfactant or cyclodextrin, Dehydrated alcohol 10%-PEG400 10%-water 80% (w/w), read-out: Solubility) was 10 µg/mL (≈ 9.59 µM), the solubility at 24 h ([3]; dehydrated alcohol-PEG400-water solvent mixture, aqueous with cosolvent or surfactant or cyclodextrin, Dehydrated alcohol 10%-PEG400 20%-water 70% (w/w), read-out: Solubility) was 20 µg/mL (≈ 19.2 µM) and the solubility at 24 h ([3]; dehydrated alcohol-PEG400-water solvent mixture, aqueous with cosolvent or surfactant or cyclodextrin, Dehydrated alcohol 20%-PEG400 20%-water 60% (w/w), read-out: Solubility) was 160 µg/mL (≈ 153 µM). The solubility at 24 h ([3]; dehydrated alcohol-PEG400-water solvent mixture, aqueous with cosolvent or surfactant or cyclodextrin, Dehydrated alcohol 20%-PEG400 30%-water 50% (w/w), read-out: Solubility) was 910 µg/mL (≈ 872 µM), the solubility at 24 h ([3]; dehydrated alcohol-PEG400-water solvent mixture, aqueous with cosolvent or surfactant or cyclodextrin, Dehydrated alcohol 20%-PEG400 40%-water 40% (w/w), read-out: Solubility) was 7900 µg/mL (≈ 7570 µM) and the solubility at 24 h ([3]; dehydrated alcohol-PEG400-water solvent mixture, aqueous with cosolvent or surfactant or cyclodextrin, Dehydrated alcohol 30%-PEG400 10%-water 60% (w/w), read-out: Solubility) was 310 µg/mL (≈ 297 µM). For the same compound, the solubility at 24 h ([3]; dehydrated alcohol-PEG400-water solvent mixture, aqueous with cosolvent or surfactant or cyclodextrin, Dehydrated alcohol 30%-PEG400 20%-water 50% (w/w), read-out: Solubility) was 1950 µg/mL (≈ 1870 µM), the solubility at 24 h ([3]; dehydrated alcohol-PEG400-water solvent mixture, aqueous with cosolvent or surfactant or cyclodextrin, Dehydrated alcohol 30%-PEG400 30%-water 40% (w/w), read-out: Solubility) was 11600 µg/mL (≈ 11100 µM) and the solubility at 24 h ([3]; dehydrated alcohol-PEG400-water solvent mixture, aqueous with cosolvent or surfactant or cyclodextrin, Dehydrated alcohol 30%-PEG400 40%-water 30% (w/w), read-out: Solubility) was 89200 µg/mL (≈ 85500 µM). For the same compound, the solubility at 24 h ([3]; dehydrated alcohol-PEG400-water solvent mixture, aqueous with cosolvent or surfactant or cyclodextrin, Dehydrated alcohol 35%-PEG400 30%-water 35% (w/w), read-out: Solubility) was 35700 µg/mL (≈ 34200 µM), the solubility at 24 h ([3]; dehydrated alcohol-PEG400-water solvent mixture, aqueous with cosolvent or surfactant or cyclodextrin, Dehydrated alcohol 35%-PEG400 35%-water 30% (w/w), read-out: Solubility) was 117000 µg/mL (≈ 112000 µM) and the solubility at 24 h ([3]; dehydrated alcohol-PEG400-water solvent mixture, aqueous with cosolvent or surfactant or cyclodextrin, Dehydrated alcohol 35%-PEG400 40%-water 25% (w/w), read-out: Solubility) was > 181000 µg/mL. The solubility at 24 h ([3]; dehydrated alcohol-PEG400-water solvent mixture, aqueous with cosolvent or surfactant or cyclodextrin, Dehydrated alcohol 35%-PEG400 45%-water 20% (w/w), read-out: Solubility) was > 258000 µg/mL, the solubility at 24 h ([3]; dehydrated alcohol-PEG400-water solvent mixture, aqueous with cosolvent or surfactant or cyclodextrin, Dehydrated alcohol 40%-PEG400 10%-water 50% (w/w), read-out: Solubility) was 3350 µg/mL (≈ 3210 µM) and the solubility at 24 h ([3]; dehydrated alcohol-PEG400-water solvent mixture, aqueous with cosolvent or surfactant or cyclodextrin, Dehydrated alcohol 40%-PEG400 20%-water 40% (w/w), read-out: Solubility) was 17400 µg/mL (≈ 16700 µM). The solubility at 24 h ([3]; dehydrated alcohol-PEG400-water solvent mixture, aqueous with cosolvent or surfactant or cyclodextrin, Dehydrated alcohol 40%-PEG400 30%-water 30% (w/w), read-out: Solubility) was 111000 µg/mL (≈ 106000 µM), the solubility at 24 h ([3]; dehydrated alcohol-PEG400-water solvent mixture, aqueous with cosolvent or surfactant or cyclodextrin, Dehydrated alcohol 40%-PEG400 40%-water 20% (w/w), read-out: Solubility) was > 49100 µg/mL and the solubility at 24 h ([3]; dehydrated alcohol-PEG400-water solvent mixture, aqueous with cosolvent or surfactant or cyclodextrin, Dehydrated alcohol 50%-PEG400 30%-water 20% (w/w), read-out: Solubility) was > 49700 µg/mL. For the same compound, the solubility at 24 h ([3]; dehydrated alcohol-PEG400-water solvent mixture, aqueous with cosolvent or surfactant or cyclodextrin, Dehydrated alcohol 50%-PEG400 40%-water 10% (w/w), read-out: Solubility) was > 48500 µg/mL, the solubility at 24 h ([3]; dehydrated alcohol-propylene glycol-water solvent mixture, aqueous with cosolvent or surfactant or cyclodextrin, Dehydrated alcohol 10%-propylene glycol 40%-water 50% (w/w), read-out: Solubility) was 540 µg/mL (≈ 518 µM) and the solubility at 24 h ([3]; dehydrated alcohol-propylene glycol-water solvent mixture, aqueous with cosolvent or surfactant or cyclodextrin, Dehydrated alcohol 10%-propylene glycol 50%-water 40% (w/w), read-out: Solubility) was 1490 µg/mL (≈ 1430 µM). For the same compound, the solubility at 24 h ([3]; dehydrated alcohol-propylene glycol-water solvent mixture, aqueous with cosolvent or surfactant or cyclodextrin, Dehydrated alcohol 20%-propylene glycol 10%-water 70% (w/w), read-out: Solubility) was 40 µg/mL (≈ 38.3 µM) and the solubility at 24 h ([3]; dehydrated alcohol-propylene glycol-water solvent mixture, aqueous with cosolvent or surfactant or cyclodextrin, Dehydrated alcohol 30%-propylene glycol 10%-water 60% (w/w), read-out: Solubility) was 200 µg/mL (≈ 192 µM).
